Read-outs that look alike come from different tables or passages of the source.
Experiments:
[1] = tested on: acute colitis induced by CD40 antibody; experiment: Mouse model of acute colitis induced by CD40 antibody; type: in vivo, CB-17 SCID mice; set-up: DAI score: scale not given here; settings: mean
Protocol: The purpose of this experiment was to evaluate the alleviating effect of the compound on colitis in a mouse model induced by CD40 antibody.
CB-17 SCID mice were randomly divided into groups. Each group consisted of 6 mice, which received an intraperitoneal injection (IP) of CD40 antibody (80 μg per mouse) on Day 0. The positive control drug IL-12 P40 antibody and the test compound were administered from Day-1 to Day 4, with Day 5 being the endpoint of the experiment. The positive control drug IL-12 P40 antibody was administered via intraperitoneal injection (IP) once every three days; the test compound was administered by gavage (PO) twice a day (BID).
The compounds were all prepared into a clear solution with 10% DMSO+10% solutol+80% (10% HP-3-CD) as a solvent for PO (oral gavage) administration. Administration volume parameters: 10 mL/kg based on the body weight of the mice.
IL-12 P40 antibody and the test compound were administered from Day-1 to Day 4. On Day 0, 30 minutes after administration, 200 μL of CD40 antibody (4 mg/kg) was intraperitoneally injected, while mice in the blank control group were intraperitoneally injected with 200 μL of DPBS. Body weight was recorded and feces were scored during the experiment.
Fecal scoring involved placing each mouse individually in a specially designed cage for about 10 minutes for scoring. The fecal scoring criteria were as per Table 27.
If blood is observed in the feces or around the anus, occult blood testing is not conducted. For the remaining mice without visible bloody stools, feces are collected for occult blood testing. Occult blood scoring is based on the assumption that the daily test results for the mice in the Normal group are 0. Each day, the fecal samples of four mice from the blank control group are observed for the time taken to develop color on the occult blood test strips. The shortest time required for color development in the feces of these four mice is set as the daily threshold. If the feces develop color before this time point and the color intensifies within 1 to 2 minutes, a score of 2 is assigned.
The body weight and Disease Activity Index (DAI) scores of the animals were recorded daily to assess the disease progression in each group and the effect of the test compound on the disease. The daily Disease Activity Index (DAI) score consists of three parts, with specific criteria referenced in Table 27.

[2] = Pharmacokinetic testing in rats; type: in vivo, male SD rats; settings: rat; for C0: read-out: Starting concentration C0; for Cmax: read-out: Peak concentration Cmax; for AUC(0-t): read-out: Area under the curve AUC0-last
Protocol: The objective was to study the pharmacokinetic behavior of the compound of the present disclosure in rats and evaluate the pharmacokinetic characteristics, using male SD rats aged 7 to 9 weeks as test animals. The drug concentrations in plasma at different time points after a single intravenous injection (IV) and oral administration (P0) of the compound were determined using LC/MS/MS.
The pharmacokinetic characteristics of the compound in rodents following intravenous injection and oral administration were tested using a standard protocol. Test animals were fasted for 10 to 14 hours before administration and allowed to feed 4 hours post-administration. The compound was prepared into a clear solution with the appropriate solvent for both IV (intravenous injection) and PO (oral gavage) administration. The solvent was […]+10% solutol+80% (10% HP-β-CD aqueous solution). Whole blood samples were collected within 24 hours, centrifuged at 6000 g for 3 minutes, and the supernatant was separated to obtain plasma samples. Protein precipitation was performed by adding four times the volume of acetonitrile solution containing internal standard to the plasma samples. After centrifugation, the supernatant was added with an equal volume of water and then centrifuged before being subjected to LC-MS/MS analysis for quantifying plasma drug concentration. Pharmacokinetic parameters such as peak concentration, time to peak concentration, clearance, half-life, area under the drug-time curve, and bioavailability were calculated.

CNC(=O)c1nnc(NC(=O)C2CC2)cc1Nc1cccc(-c2ncc(S(=N)(=O)C(C)C)cn2)c1OC.Cl (single isomer, unassigned) [Hydrochloride of WX-011A]
DAI score ([1]; 30 mg/kg PO BID, Day 0): 0.17
Weight change rate (%) ([1]; 30 mg/kg PO BID, Day 0): 100.60%
DAI score ([1]; 30 mg/kg PO BID, Day 1): 1.00
Weight change rate (%) ([1]; 30 mg/kg PO BID, Day 1): 100.01%
DAI score ([1]; 30 mg/kg PO BID, Day 2): 2.17
Weight change rate (%) ([1]; 30 mg/kg PO BID, Day 2): 95.93%
DAI score ([1]; 30 mg/kg PO BID, Day 3): 0.83
Weight change rate (%) ([1]; 30 mg/kg PO BID, Day 3): 98.85%
DAI score ([1]; 30 mg/kg PO BID, Day 4): 0.50
Weight change rate (%) ([1]; 30 mg/kg PO BID, Day 4): 99.69%
DAI score ([1]; 30 mg/kg PO BID, Day 5): 1.00
Weight change rate (%) ([1]; 30 mg/kg PO BID, Day 5): 97.07%
DAI score ([1]; 30 mg/kg PO BID, Day -1): 0.00
Weight change rate (%) ([1]; 30 mg/kg PO BID, Day -1): 100.00%
DAI score ([1]; 50 mg/kg PO BID, Day 0): 0.33
Weight change rate (%) ([1]; 50 mg/kg PO BID, Day 0): 100.63%
DAI score ([1]; 50 mg/kg PO BID, Day 1): 1.00
Weight change rate (%) ([1]; 50 mg/kg PO BID, Day 1): 99.54%
DAI score ([1]; 50 mg/kg PO BID, Day 2): 1.83
Weight change rate (%) ([1]; 50 mg/kg PO BID, Day 2): 97.69%
DAI score ([1]; 50 mg/kg PO BID, Day 3): 0.67
Weight change rate (%) ([1]; 50 mg/kg PO BID, Day 3): 100.43%
DAI score ([1]; 50 mg/kg PO BID, Day 4): 0.50
Weight change rate (%) ([1]; 50 mg/kg PO BID, Day 4): 100.96%
DAI score ([1]; 50 mg/kg PO BID, Day 5): 1.17
Weight change rate (%) ([1]; 50 mg/kg PO BID, Day 5): 99.34%
DAI score ([1]; 50 mg/kg PO BID, Day -1): 0.00
Weight change rate (%) ([1]; 50 mg/kg PO BID, Day -1): 100.00%
Apparent clearance Cl ([2]; IV 1 mg/kg): 16.8 mL/min/kg
Apparent volume of distribution Vd ([2]; IV 1 mg/kg): 0.5 L/kg
Area under the curve AUC0-last ([2]; IV 1 mg/kg): 2.075 µM·h
Half-life T1/2 ([2]; IV 1 mg/kg): 36 min
C0 ([2]; IV 1 mg/kg): 4.54 µM
Area under the curve AUC0-last ([2]; PO 10 mg/kg): 8.202 µM·h
Bioavailability F % ([2]; PO 10 mg/kg): 41%
Time to peak concentration Tmax ([2]; PO 10 mg/kg): 30 min
Cmax ([2]; PO 10 mg/kg): 4.39 µM

CNC(=O)c1cnc(NC(=O)C2CC2)cc1Nc1cccc(-c2ccc(S(=O)(=O)C(C)C)cn2)c1OC.O=S(=O)(O)O [Sulfate of WX-020]
DAI score ([1]; 50 mg/kg PO BID, Day 0): 0.33
Weight change rate (%) ([1]; 50 mg/kg PO BID, Day 0): 100.48%
DAI score ([1]; 50 mg/kg PO BID, Day 1): 1.17
Weight change rate (%) ([1]; 50 mg/kg PO BID, Day 1): 98.37%
DAI score ([1]; 50 mg/kg PO BID, Day 2): 2.67
Weight change rate (%) ([1]; 50 mg/kg PO BID, Day 2): 95.22%
DAI score ([1]; 50 mg/kg PO BID, Day 3): 0.83
Weight change rate (%) ([1]; 50 mg/kg PO BID, Day 3): 100.73%
DAI score ([1]; 50 mg/kg PO BID, Day 4): 0.33
Weight change rate (%) ([1]; 50 mg/kg PO BID, Day 4): 100.81%
DAI score ([1]; 50 mg/kg PO BID, Day 5): 0.50
Weight change rate (%) ([1]; 50 mg/kg PO BID, Day 5): 100.44%
DAI score ([1]; 50 mg/kg PO BID, Day -1): 0.00
Weight change rate (%) ([1]; 50 mg/kg PO BID, Day -1): 100.00%
DAI score ([1]; 100 mg/kg PO BID, Day 0): 0.33
Weight change rate (%) ([1]; 100 mg/kg PO BID, Day 0): 100.78%
DAI score ([1]; 100 mg/kg PO BID, Day 1): 1.33
Weight change rate (%) ([1]; 100 mg/kg PO BID, Day 1): 99.88%
DAI score ([1]; 100 mg/kg PO BID, Day 2): 1.67
Weight change rate (%) ([1]; 100 mg/kg PO BID, Day 2): 97.14%
DAI score ([1]; 100 mg/kg PO BID, Day 3): 0.50
Weight change rate (%) ([1]; 100 mg/kg PO BID, Day 3): 99.65%
DAI score ([1]; 100 mg/kg PO BID, Day 4): 0.33
Weight change rate (%) ([1]; 100 mg/kg PO BID, Day 4): 101.16%
DAI score ([1]; 100 mg/kg PO BID, Day 5): 0.33
Weight change rate (%) ([1]; 100 mg/kg PO BID, Day 5): 100.90%
DAI score ([1]; 100 mg/kg PO BID, Day -1): 0.00
Weight change rate (%) ([1]; 100 mg/kg PO BID, Day -1): 100.00%

CNC(=O)c1cnc(NC(=O)C2CC2)cc1Nc1cccc(-c2ccc(S(=O)(=O)C(C)C)cn2)c1OC [WX-020]
Vd ([2]; male, SD, plasma, IV 3 mg/kg, read-out: Apparent volume of distribution Vd): 0.9 L/kg
AUC(0-t) ([2]; male, SD, plasma, IV 3 mg/kg): 2.61 µM·h
half-life ([2]; male, SD, plasma, IV 3 mg/kg, read-out: Half-life T1/2 (converted)): 54 min
C0 ([2]; male, SD, plasma, IV 3 mg/kg): 3.03 µM
AUC(0-t) ([2]; male, SD, plasma, PO 10 mg/kg): 9.76 µM·h
bioavailability ([2]; male, SD, plasma, PO 10 mg/kg, read-out: Bioavailability F%): 39%
Cmax ([2]; male, SD, plasma, PO 10 mg/kg): 3.38 µM
Tmax ([2]; male, SD, plasma, PO 10 mg/kg, read-out: Time to peak concentration Tmax): 48 min
Apparent clearance Cl ([2]; IV 3 mg/kg): 13.1 mL/min/kg

Source: patent publication US20240335462A1, “SULFUR/PHOSPHORUS-CONTAINING ARYL COMPOUND AND APPLICATION THEREOF” (MEDSHINE DISCOVERY INC., priority 2021, published 2024)
